# Values of other authors in article PMC9851200, “Multiparameter phenotypic screening for endogenous TFEB and TFE3 translocation identifies novel chemical series modulating lysosome function” (Autophagy, 2022).
# Experiments:
# Design in all cases: method as in original PKIS2 published data
# [1] = target: kinases (KINOMEscan panel) (Homo sapiens, UniProt Q9BWU1); settings: kinase CDK19; Published KINOMEscan; ref original PKIS2 published data; cited from earlier work
# [2] = target: kinases (KINOMEscan panel) (Homo sapiens, UniProt Q8IVW4); settings: kinase CDKL3; Published KINOMEscan; ref original PKIS2 published data; cited from earlier work
# Chain of kinases (KINOMEscan panel) (Homo sapiens, UniProt Q8IVW4) (Q8IVW4 whole entry): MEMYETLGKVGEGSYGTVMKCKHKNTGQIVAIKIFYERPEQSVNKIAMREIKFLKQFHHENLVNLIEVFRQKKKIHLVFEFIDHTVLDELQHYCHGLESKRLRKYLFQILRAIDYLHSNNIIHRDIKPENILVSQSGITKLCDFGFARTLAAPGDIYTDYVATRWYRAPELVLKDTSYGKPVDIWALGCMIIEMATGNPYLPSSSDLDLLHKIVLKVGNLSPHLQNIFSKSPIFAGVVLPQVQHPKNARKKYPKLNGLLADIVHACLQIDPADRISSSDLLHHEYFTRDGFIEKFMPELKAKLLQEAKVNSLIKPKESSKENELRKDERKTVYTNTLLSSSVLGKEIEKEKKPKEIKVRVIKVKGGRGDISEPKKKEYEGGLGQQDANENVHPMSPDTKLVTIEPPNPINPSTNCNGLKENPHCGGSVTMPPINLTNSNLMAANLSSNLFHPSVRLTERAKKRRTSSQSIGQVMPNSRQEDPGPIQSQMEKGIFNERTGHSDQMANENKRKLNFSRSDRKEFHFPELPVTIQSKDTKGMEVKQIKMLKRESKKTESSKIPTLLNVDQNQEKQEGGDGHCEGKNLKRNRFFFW
# [3] = target: kinases (KINOMEscan panel) (Homo sapiens, UniProt P30291); settings: WEE1; Published KINOMEscan; ref original PKIS2 published data; cited from earlier work
# Chain of kinases (KINOMEscan panel) (Homo sapiens, UniProt P30291) (P30291 whole entry): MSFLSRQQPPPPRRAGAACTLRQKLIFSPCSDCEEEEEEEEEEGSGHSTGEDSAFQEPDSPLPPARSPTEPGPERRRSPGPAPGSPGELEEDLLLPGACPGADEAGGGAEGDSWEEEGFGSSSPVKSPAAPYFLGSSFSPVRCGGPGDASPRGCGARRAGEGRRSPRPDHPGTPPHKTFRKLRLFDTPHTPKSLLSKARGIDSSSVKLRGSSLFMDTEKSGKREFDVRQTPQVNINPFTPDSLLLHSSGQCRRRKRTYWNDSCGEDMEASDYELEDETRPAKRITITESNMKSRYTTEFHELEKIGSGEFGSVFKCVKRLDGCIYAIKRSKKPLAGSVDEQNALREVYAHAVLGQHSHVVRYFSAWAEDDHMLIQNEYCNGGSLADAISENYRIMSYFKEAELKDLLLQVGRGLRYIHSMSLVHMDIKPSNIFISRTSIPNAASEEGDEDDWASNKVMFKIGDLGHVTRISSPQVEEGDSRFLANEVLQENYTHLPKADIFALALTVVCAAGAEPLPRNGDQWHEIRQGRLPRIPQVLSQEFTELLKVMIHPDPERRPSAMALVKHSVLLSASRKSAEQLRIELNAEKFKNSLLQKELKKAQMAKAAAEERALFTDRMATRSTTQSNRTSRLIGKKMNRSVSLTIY
# [4] = target: kinases (KINOMEscan panel) (Homo sapiens, UniProt P06239); settings: LCK; Published KINOMEscan; ref original PKIS2 published data; cited from earlier work
# Chain of kinases (KINOMEscan panel) (Homo sapiens, UniProt P06239) (P06239 whole entry): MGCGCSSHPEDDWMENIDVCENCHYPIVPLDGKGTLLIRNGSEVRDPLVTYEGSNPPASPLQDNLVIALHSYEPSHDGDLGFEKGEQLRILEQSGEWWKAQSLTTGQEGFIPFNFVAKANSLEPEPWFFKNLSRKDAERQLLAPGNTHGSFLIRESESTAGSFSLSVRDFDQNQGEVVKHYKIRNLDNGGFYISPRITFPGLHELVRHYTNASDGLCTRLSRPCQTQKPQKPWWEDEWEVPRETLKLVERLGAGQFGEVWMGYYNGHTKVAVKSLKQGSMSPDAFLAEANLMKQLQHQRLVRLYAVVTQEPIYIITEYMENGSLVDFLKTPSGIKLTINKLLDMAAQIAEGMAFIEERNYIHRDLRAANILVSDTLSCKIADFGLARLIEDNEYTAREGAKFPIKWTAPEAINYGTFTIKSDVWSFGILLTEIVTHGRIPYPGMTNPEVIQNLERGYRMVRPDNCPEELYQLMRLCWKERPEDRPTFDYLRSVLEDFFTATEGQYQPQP
# [5] = target: kinases (KINOMEscan panel) (Homo sapiens, UniProt P09769); settings: FGR; Published KINOMEscan; ref original PKIS2 published data; cited from earlier work
# Chain of kinases (KINOMEscan panel) (Homo sapiens, UniProt P09769) (P09769 whole entry): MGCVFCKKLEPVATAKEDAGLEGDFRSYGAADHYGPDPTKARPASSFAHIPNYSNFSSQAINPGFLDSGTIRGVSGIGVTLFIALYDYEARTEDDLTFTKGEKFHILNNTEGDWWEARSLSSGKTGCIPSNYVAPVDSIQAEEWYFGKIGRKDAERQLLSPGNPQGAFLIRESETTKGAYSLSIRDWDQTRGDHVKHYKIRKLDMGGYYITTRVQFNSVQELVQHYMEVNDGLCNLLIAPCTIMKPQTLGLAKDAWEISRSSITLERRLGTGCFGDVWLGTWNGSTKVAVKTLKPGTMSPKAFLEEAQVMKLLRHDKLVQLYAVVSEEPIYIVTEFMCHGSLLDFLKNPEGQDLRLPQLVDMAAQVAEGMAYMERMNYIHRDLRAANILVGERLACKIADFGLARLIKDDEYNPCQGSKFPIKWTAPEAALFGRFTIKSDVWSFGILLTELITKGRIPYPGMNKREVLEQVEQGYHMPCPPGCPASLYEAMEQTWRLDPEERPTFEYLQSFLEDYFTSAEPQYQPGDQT
# [6] = target: kinases (KINOMEscan panel) (Homo sapiens, UniProt Q9Y6M4); settings: CSNK1G3; Published KINOMEscan; ref original PKIS2 published data; cited from earlier work
# Chain of kinases (KINOMEscan panel) (Homo sapiens, UniProt Q9Y6M4) (Q9Y6M4 whole entry): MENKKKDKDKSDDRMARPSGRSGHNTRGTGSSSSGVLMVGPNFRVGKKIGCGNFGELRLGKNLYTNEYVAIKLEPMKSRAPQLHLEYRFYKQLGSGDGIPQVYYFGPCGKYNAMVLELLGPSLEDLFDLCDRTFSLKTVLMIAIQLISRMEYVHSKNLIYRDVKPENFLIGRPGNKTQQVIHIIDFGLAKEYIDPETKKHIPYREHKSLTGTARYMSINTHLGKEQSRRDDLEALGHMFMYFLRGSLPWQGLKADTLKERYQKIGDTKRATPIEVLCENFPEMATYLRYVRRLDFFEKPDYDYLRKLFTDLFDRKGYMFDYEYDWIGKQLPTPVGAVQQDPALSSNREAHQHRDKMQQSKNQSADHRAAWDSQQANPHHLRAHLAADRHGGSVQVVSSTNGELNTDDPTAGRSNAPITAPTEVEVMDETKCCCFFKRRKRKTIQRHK
# [7] = target: T1, kinases (KINOMEscan panel) (Homo sapiens, UniProt P78356); settings: PIP4K2B; Published KINOMEscan; ref original PKIS2 published data; cited from earlier work
# T1 sequence (P78356 1-416): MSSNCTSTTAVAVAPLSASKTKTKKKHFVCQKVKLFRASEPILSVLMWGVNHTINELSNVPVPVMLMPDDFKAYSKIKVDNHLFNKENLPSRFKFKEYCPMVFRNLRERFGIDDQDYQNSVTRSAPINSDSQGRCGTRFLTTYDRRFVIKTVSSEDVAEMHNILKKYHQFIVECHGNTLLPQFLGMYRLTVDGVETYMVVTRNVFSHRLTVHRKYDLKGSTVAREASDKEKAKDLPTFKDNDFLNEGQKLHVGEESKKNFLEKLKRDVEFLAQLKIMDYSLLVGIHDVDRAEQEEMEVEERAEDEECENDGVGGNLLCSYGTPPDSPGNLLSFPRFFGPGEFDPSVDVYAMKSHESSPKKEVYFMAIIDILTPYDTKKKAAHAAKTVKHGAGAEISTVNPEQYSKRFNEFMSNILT
# [8] = target: kinases (KINOMEscan panel) (Homo sapiens, UniProt Q16512); settings: Published KINOMEscan; ref original PKIS2 published data; cited from earlier work
# Chain of kinases (KINOMEscan panel) (Homo sapiens, UniProt Q16512) (Q16512 whole entry): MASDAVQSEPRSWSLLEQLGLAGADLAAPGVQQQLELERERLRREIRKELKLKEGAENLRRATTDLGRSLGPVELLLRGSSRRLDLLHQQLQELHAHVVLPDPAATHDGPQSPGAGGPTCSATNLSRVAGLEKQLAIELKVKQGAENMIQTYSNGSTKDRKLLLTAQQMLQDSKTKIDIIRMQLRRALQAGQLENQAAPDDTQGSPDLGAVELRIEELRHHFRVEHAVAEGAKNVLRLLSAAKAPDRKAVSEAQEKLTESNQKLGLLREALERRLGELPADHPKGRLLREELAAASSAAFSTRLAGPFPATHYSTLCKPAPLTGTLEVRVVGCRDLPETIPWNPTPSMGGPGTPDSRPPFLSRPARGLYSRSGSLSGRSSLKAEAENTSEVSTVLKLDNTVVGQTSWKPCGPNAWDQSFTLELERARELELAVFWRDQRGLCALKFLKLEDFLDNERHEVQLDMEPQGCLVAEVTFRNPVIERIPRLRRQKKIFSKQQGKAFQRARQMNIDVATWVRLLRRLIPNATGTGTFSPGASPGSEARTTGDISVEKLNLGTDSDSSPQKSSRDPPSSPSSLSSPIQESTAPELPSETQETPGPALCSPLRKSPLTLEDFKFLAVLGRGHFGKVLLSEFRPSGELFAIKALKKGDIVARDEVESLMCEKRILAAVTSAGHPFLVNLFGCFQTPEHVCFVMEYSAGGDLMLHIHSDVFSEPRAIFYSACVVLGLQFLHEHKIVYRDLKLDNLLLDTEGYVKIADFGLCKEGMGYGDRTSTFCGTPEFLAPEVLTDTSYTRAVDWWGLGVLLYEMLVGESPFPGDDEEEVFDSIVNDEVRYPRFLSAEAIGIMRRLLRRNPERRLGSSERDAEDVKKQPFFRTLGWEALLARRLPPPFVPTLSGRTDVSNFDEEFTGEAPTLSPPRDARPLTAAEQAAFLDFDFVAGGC
# [9] = target: T2, kinases (KINOMEscan panel) (Homo sapiens, UniProt Q14164); settings: cited from earlier work
# T2 sequence (Q14164 1-716): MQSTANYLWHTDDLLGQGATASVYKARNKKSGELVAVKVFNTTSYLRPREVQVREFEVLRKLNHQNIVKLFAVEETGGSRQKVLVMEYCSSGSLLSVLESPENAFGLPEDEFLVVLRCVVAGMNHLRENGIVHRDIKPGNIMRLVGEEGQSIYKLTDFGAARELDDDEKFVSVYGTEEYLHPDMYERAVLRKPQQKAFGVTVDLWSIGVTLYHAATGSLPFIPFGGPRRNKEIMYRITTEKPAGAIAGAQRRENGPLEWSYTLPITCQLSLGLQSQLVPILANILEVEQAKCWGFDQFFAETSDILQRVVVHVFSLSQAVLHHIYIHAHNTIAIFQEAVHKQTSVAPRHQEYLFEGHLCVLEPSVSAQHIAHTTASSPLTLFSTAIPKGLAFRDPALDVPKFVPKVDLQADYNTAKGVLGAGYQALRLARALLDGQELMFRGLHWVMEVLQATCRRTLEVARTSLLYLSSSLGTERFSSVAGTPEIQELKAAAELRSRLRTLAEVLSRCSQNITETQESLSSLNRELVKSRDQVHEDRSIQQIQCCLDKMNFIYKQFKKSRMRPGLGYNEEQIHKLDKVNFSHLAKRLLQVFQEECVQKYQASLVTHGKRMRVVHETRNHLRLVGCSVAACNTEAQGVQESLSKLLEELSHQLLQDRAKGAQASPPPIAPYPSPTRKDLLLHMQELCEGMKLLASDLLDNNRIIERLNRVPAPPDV
# [10] = target: kinases (KINOMEscan panel) (Homo sapiens, UniProt P22455); settings: Published KINOMEscan; ref original PKIS2 published data; cited from earlier work
# Chain of kinases (KINOMEscan panel) (Homo sapiens, UniProt P22455) (P22455 22-802): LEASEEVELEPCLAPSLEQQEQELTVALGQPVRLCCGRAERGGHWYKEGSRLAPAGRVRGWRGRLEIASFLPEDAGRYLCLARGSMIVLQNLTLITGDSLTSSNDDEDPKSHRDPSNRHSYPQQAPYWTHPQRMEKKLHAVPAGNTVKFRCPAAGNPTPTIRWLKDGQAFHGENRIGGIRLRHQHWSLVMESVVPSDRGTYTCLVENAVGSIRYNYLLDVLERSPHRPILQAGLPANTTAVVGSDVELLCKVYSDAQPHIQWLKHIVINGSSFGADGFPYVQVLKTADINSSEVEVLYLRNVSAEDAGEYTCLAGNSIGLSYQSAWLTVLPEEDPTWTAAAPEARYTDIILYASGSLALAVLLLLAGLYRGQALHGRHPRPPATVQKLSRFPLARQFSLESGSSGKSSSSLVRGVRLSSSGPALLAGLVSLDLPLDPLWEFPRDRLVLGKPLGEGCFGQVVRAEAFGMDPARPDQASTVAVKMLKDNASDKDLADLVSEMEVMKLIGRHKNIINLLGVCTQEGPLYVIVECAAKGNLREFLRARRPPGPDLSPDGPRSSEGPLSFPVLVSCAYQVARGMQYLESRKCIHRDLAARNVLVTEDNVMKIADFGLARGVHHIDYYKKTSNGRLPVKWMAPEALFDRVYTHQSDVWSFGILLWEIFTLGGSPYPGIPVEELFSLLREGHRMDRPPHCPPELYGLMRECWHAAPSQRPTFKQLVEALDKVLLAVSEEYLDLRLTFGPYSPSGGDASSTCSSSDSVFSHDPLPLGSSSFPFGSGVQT
# [11] = target: kinases (KINOMEscan panel) (Homo sapiens, UniProt Q9H422); settings: kinase HIPK3; Published KINOMEscan; ref original PKIS2 published data; cited from earlier work
# Chain of kinases (KINOMEscan panel) (Homo sapiens, UniProt Q9BWU1) (Q9BWU1 whole entry): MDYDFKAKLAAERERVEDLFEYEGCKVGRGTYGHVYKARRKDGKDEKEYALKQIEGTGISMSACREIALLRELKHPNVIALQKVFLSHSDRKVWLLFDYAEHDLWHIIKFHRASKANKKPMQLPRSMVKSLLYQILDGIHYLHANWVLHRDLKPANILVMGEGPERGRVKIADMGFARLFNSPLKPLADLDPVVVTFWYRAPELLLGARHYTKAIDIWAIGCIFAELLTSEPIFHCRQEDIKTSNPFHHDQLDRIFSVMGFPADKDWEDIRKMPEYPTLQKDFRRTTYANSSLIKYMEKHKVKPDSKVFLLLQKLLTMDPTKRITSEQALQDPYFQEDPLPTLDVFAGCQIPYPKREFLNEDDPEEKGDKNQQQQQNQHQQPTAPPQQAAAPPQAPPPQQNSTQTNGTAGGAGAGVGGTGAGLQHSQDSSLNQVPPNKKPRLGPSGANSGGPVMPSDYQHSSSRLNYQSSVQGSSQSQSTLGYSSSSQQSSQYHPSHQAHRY
compound,measurement,setting,value
Cc1cccc(-c2nc(Nc3ccncc3)c3ccccc3n2)n1 [NK215],KINOMEscan CDK19,[1],0
same,KINOMEscan CDKL3,[2],0
same,KINOMEscan WEE1,[3],23
same,KINOMEscan LCK,[4],9
same,KINOMEscan FGR,[5],31
same,KINOMEscan CSNK1G3,[6],12
same,KINOMEscan PIP4K2B,[7],0
same,KINOMEscan PKN1,[8],0
same,KINOMEscan IKBKE/IKK-epsilon,[9],0
same,KINOMEscan FGFR4,[10],6
same,KINOMEscan HIPK3,[11],0
